SMILES strings stand for the structures. Counter-ions that a name gives are not always drawn. Some results are limits rather than exact numbers.

The nature of series [1]: Solubility in water. The series is classed as physicochemical. Particulars: pH 7.4, aqueous buffer, pH of 7.4 at room temperature. The method, then:
The compounds have been assessed in respect of their solubility in water, at a pH of 7.4 at room temperature. In general the solubility of compounds of formula (I) is in a range of at least 50 μg/mL solvent, more preferably of at least 100 μg/mL solvent. For instance compounds (63), (163), (198) display a solubility in water of at least 200 μg/mL solvent.

The target in series [2] is JNK1 (Homo sapiens, UniProt P45983). As to the kind of experiment: JNK1 inhibition. It counts as biochemical. Particulars: read-out: inhibition (IC50) with regard to JNK1.
Chain of JNK1 (P45983 whole entry, species assumed): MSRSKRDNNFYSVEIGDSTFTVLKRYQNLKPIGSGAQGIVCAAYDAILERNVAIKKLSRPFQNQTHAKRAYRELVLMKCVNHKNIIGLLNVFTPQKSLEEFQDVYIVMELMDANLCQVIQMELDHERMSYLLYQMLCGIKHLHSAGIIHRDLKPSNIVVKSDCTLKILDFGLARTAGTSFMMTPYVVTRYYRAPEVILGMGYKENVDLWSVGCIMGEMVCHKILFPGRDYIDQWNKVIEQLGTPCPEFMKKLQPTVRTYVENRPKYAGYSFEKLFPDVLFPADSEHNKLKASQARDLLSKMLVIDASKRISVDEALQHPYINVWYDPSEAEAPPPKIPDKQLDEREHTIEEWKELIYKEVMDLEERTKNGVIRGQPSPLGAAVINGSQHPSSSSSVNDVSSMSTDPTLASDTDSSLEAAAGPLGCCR
The test system of series [3] is gerbil bilateral carotid occlusion. Description: Global ischemia in gerbils. Particulars: 80 mg/kg. The series is classed as in vivo. Here is the method:
The Ability of the JNK Inhibitors Described in Formula I to Protect Cell Death During a Stroke Event was Assessed Using the Following Protocol:
The gerbil bilateral carotid occlusion is a well-described animal model of acute ischemic stroke and involves relatively easy surgical techniques.
The neuronal degeneration in the hippocampus develops over several days and is often referred as “delayed neuronal death”. In addition, the neurodegeneration observed histologically is obvious and easily quantified (37). Furthermore, the histopathology seen in the gerbil is similar to that observed in the hippocampal CA1 region of the human brain following a cardiac arrest. Behavior observations, such as memory tests, could even be performed in the case of gerbils. This kind of tests for appreciation of the degree of recovery is not easily manageable in other models such as in rat whose learning abilities are much poorer (38).
• Anesthesia with isoflurane (0.5-4%). • The common carotid arteries (left and right) are freed from tissue. • Occlusion of the arteries using Bulldog microclamps during 5 min. • Removal of clamps (reperfusion) • Stabulation of the animals under heating lamp until awake. • Stabulation of the animals in the animalry in individual cages. Sacrifice of the Animals • 7 days after ischemia (Decapitation or overdose of pentobarbital). • Sampling of the brain. […]

The subject of series [4] is IL-2 release by (PMA+Ionomycin)-stimulated Jurkat cells. Description: IL-2 release assay (IL-2 ELISA). It counts as cell-based. Particulars: Homo sapiens; PMA + Ionomycine stimulated Jurkat cells. Here is the method: The Ability of the Compounds According to Formula I to Modulate the Inflammatory Response by Inhibiting the Release of IL-2 was Assessed Using the Following Protocol
JNK pathway activation triggers the production of inflammatory cytokines such as IL-2. JNK can be activated by external stimuli such as PMA and Ionomycine and IL-2 production can be measured via an IL-2 ELISA test. Comparative measurements with and without the compounds of the invention according to the following protocol measure the ability of the compounds to prevent to stress-mediated IL-2 release.
Jurkat cells, a human T cell leukemia cell line (American Type Culture Collection # TIB 152) were cultured in RPMI 1640 medium (Gibco, BRL) supplemented with 10% of […] fetal calf serum (FCS), Glutamine and Penstrep. The cell suspension in the medium is diluted to give 2.10^6 cells/mL. The cells were plated (2.10^5 cells/well) on a 96-well plate containing different concentrations of a compound according to formula I (final concentration of compounds, 10, 3, 1, 0.3, 0.1 μM). This mixture is incubated 30 minutes at 37° C. in a humidified CO2 atmosphere. Cells were then treated with 10 μl PMA (Phorbolmyristate-13 Acetate-12)+Ionomycine (0.1 μM and 1 μM final concentration) in all wells except negative control. In wells without compounds, 10 μl of RPMI 2% DMSO (=0.1% final) is added. Cells are incubated 24 hours at 37° C. and then the supernatant harvested (freeze at −20° C. if not used the same day) prior to performing IL-2 ELISA test on the supernatant.
IL-2 release into the medium by (PMA+Iononomycin)-stimulated Jurkat cells, in presence or absence of test compounds may be assayed by ELISA. Following the procedure described below.
Monoclonal anti-human IL-2 antibody (MAB602) (capture), biotinylated anti-human IL-2 antibody (BAF202) (detection) and recombinant human IL-2 (202-IL-010) (standard) from From R&D Systems are used. […]
• 1. […] Optical density is measured using a microtiter plate reader set to 450 nm with correction at 570 nm.
A general note: ELISA stands for enzyme-linked immunosorbent assay.

For series [5], the target named is GST-JNK3 (Homo sapiens, UniProt P53779). Description: JNK3 in vitro assay (33P incorporation into c-jun, SPA). It counts as biochemical. The method, then: (§1) The phosphorylation of c-jun by JNK2 or JNK3 may be followed by monitoring the incorporation of ^33P into c-jun following the protocol below. The inhibitory activity of the compounds according to formula I, in respect of c-jun phosphorylation through JNK, is determined by calculating the phosphorylation activity of a JNK in the presence or absence of the test compounds according to formula I.
Chain of GST-JNK3 (P53779 whole entry): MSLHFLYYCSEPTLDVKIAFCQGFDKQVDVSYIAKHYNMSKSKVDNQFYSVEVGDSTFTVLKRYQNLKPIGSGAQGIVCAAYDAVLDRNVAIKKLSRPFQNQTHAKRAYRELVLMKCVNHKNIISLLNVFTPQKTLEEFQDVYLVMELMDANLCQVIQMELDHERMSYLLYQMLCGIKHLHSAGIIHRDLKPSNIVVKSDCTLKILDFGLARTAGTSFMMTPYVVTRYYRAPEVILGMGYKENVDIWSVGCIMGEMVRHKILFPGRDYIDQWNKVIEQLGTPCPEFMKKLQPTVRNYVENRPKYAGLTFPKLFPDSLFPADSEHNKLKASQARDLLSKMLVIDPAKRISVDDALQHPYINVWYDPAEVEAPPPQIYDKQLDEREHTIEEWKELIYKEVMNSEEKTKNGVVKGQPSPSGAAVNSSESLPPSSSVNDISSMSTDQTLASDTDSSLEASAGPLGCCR
(§2) JNK3 and/or -2 assays are performed in 96 well NM plates: incubation of 0.5 μg of recombinant, pre-activated GST-JNK3 or GST-JNK2 with 1 μg of recombinant, biotinylated GST-c-Jun and 2 μM ^33γ-ATP (2 nCi/μl), in the presence or absence of compounds according to formula I and in a reaction volume of 50 μl containing 50 mM Tris-HCl, pH 8.0; 10 mM MgCl2; 1 mM Dithiothreitol, and 100 μM NaVO4. The incubation is performed for 120 min. at R.T and stopped upon addition of 200 μl of a solution containing 250 μg of Streptavidine-coated SPA beads (Amersham, Inc.)*, 5 mM EDTA, 0.1% Triton X-100 and 50 μM ATP, in phosphate saline buffer. After incubation for 60 minutes at RT, beads are sedimented by centrifugation at 1500×g for 5 minutes, resuspended in 200 μl of PBS containing 5 mM EDTA, 0.1% Triton X-100 and 50 μM ATP and the radioactivity measured in a scintillation β counter, following sedimentation of the beads as described above. By replacing biotinylated GST-c Jun with biotinylated GST-1ATF2 or biotinylated myelin basic protein, this assay may also be used to measure inhibition of pre-activated p38 and ERK MAP Kinases, respectively.

The target in series [6] is GST-JNK2 (Homo sapiens, UniProt P45984). Description: JNK2 in vitro assay (33P incorporation into c-jun, SPA). The series is classed as biochemical. Here is the method: as §1, §2
Chain of GST-JNK2 (P45984 whole entry): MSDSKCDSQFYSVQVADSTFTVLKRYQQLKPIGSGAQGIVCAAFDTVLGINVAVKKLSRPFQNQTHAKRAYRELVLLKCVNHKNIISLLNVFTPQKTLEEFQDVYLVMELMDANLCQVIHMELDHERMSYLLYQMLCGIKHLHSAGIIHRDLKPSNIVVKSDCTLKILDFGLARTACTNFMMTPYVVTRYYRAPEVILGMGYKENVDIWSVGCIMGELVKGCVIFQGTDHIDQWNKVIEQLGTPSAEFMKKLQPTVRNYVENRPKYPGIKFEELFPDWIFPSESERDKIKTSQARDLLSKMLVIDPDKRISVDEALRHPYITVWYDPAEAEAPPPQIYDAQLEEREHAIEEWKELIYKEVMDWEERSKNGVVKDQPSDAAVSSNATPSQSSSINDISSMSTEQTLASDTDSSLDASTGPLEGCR
Series [7] concerns Male C57BL/6 mice. As to the kind of experiment: LPS induced endotoxin shock in mice. The series is classed as in vivo. As to conditions: intravenously 15 min before LPS challenge. Here is the method: Endotoxins are the lipopolysaccharides (LPS) constituents of the outer membrane of Gram negative bacteria. […] As LPS is known to stimulate the activation of various MAP kinase pathways, including JNK (35), the ability of JNK inhibitors can be tested after the JNK signaling pathway has been switched on by a LPS challenge.
LPS (S. abortus-Galanos Lab.-) is injected (200 μg/kg, i.v.) to Male C57BL/6 mice to induce endotoxin shock. Compounds according to formula I (0.1, 1, 10 mg/kg) or NaCl ([…]) are injected intravenously (10 mL/kg) 15 min before the LPS challenge. Heparinized blood was obtained from the orbital sinus at different time points after the LPS challenge, and the blood was centrifuged at 9'000 rpm for 10 min at 4° C. to collect supernatent. Measurement of cytokines production such as TNFα and IFNγ by mouse is performed with an ELISA kit such as Duoset® DY410 for TNFα and DY 485 for IFN γ. Other ELISA assays such as described in (36) can be used.

The subject of series [8] is Sympathetic neurons from superior cervical ganglia (SCG). As to the kind of experiment: Sympathetic neuron culture and survival assay. The series is classed as cell-based, rat. As to conditions: at 3 μM; anti NGF antibody induced cell death, MTT after 24 hours. Here is the method: The Ability of the Compounds According to Formula I to Increase the Survival Rate of Neuronal Cells Having Been Induced to Cell Death was Assessed Using the Following Protocol
Cell death is induced at day 4 after plating by exposing the culture to medium containing 10 μg/mL of anti NGF anti-body (Boehringer Mannheim Corp., Indianapolis, Ind.) and no NGF or arabinosine, in the presence or absence of sulfonamide inhibitors. 24 hours after cell death induction, determination of cell viability is performed by incubation of the culture for 1 hour, at 37° C. in 0.5 mg/mL of 3-(4,5-dimethylthiazol-2-yl)-2,5 diphenyl tetrazolium bromide (MTT). After incubation in MTT cells are resuspended in DMSO, transferred to a 96 MTT plate and cell viability is evaluated by measuring optical density at 590 nm.

Regarding `O=C(NCc1ccc(S(=O)(=O)N2CCC(NCc3ccc(C(F)(F)F)cc3)CC2)s1)c1ccc[nH]c1=O` [Example 198, 2-Oxo-N-({5-[(4-{[4-(trifluoromethyl)benzyl]amino}-1-piperidinyl)sulfonyl]-2-thienyl}methyl)-1,2-dihydro-3-pyridinecarboxamide], the solubility (in general, how much of the substance goes into solution per volume) in [1] is not below 200 µg/mL. Further, the IC50 (commonly the point on the concentration scale where inhibition reaches its midpoint) in series [2] is 100 to 700 nM.
`O=C(NCc1ccc(S(=O)(=O)N2CCC(NCc3ccc(C(F)(F)F)cc3)CC2)s1)c1ccc[nH]c1=O` (as salt: HCl) [Example 198, 2-Oxo-N-({5-[(4-{[4-(trifluoromethyl)benzyl]amino}-1-piperidinyl)sulfonyl]-2-thienyl}methyl)-1,2-dihydro-3-pyridinecarboxamide]: the melting point – broadly, the temperature of the solid-liquid transition – was 288 to 289 °C.
`CCCCNC1CCN(S(=O)(=O)c2ccc(CNC(=O)c3ccc(Cl)cc3)s2)CC1` [Example 68, 4-chloro-N-[(5-{[4-(butylamino)piperidin-1-yl]sulfonyl}thien-2-yl)methyl]benzamide]: the “inhibition of global ischemia (% inhibition of total lesion)” value in series [3] is given as 64%. Further, the 50% inhibitory concentration (IC50) in series [4] is less than 800 nM.
On to `CCCCCCNC1CCN(S(=O)(=O)c2ccc(CNC(=O)c3ccc(Cl)cc3)s2)CC1` [Example 63, 4-Chloro-N-[(5-{[4-(hexylamino)piperidin-1-yl]sulfonyl}thien-2-yl)methyl]benzamide], for which the concentration for half-maximal inhibition (IC50) in series [5] was less than 600 nM; in series [6], less than 600 nM; in [2], 100 to 700 nM. The same compound displayed a solubility in series [1] not below 200 µg/mL. Further, the “inhibition of IFNγ production” value in series [7] (1 mg/kg) is recorded as 65%. Moreover, the “inhibition of TNFα production” value in series [7] (10 mg/kg) is recorded as 40%. For the same compound, the “rescue rate of SCG cells” value in series [8] was determined as 35%.
